The subject of test [1] is mice. Briefly: Prepulse inhibition (PPI) of acoustic startle response, test compounds i.p. The following applies: for effect of psychotomimetic alone on pre-pulse inhibition of the startle response: control experiment, KET 30 mg/Kg i.p. or MeAmph 2 mg/Kg i.p.; for rescue of PPI disruption induced by methamphetamine: MeAmPh 2 mg/kg i.p., 71 dB-prepulse protocol, FIG. 7.
Test [2] has as its system mice. Kind of test: PPI of startle response after bilateral intra-cerebella microinjection of test compounds. Type of test: in vivo. The following applies: for reinstating ketamine induced PPI disruption: FIG. 4, FIG. 5. How it is done: In view of the finding in FIGS. 2 and 3, test compounds (e.g., hispidulin or Ro-154513) were microinjected into cerebella (e.g., i.cb microinjection) of the test animals to confirm the action site of hispidulin, by observing whether the MeAmph, KET, or MK-801-induced PPI disruption may be rescued.
Briefly, the mice were anaesthetized with pentobarbital (100 mg/kg i.p.) and placed in a stereotaxic frame. After shaving the hair, the skull surface was exposed by an incision. The head position of the mice was adjusted so that the bregma-lambda axis was horizontal. Then, two 24 gauge stainless-steel cannulae were implanted bilaterally into the lateral cerebellum (−6.4 mm caudal, ±1.5 mm lateral, −1.0 mm ventral from Bregma), according to stereotaxic coordinates (Paxions, 2001). Three stainless steel screws and dental cement were used to fix the cannulae on the top of the skull. The animal was allowed to fully recover after surgery for at least one week before the behavioral experiments were conducted.
On the day of experiment, test compounds were injected through the embedded cannula at 0.5 μl on each side of the cerebellum for 30 s and waited for 1 min to allow the injected compounds to diffuse into the cerebellum. PPI test were conducted as described in Example 2. After experiments, methylene blue was microinjected (0.5 μl/side) and animals were sacrificed and cerebellar slices were dissected to confirm the microinjection site. The data was discarded in the mice with incorrect microinjection sites.

In the next test the test system is Male ICR mice. Kind of test: Methamphetamine-induced hyperlocomotion, locomotor activity test. Type of test: in vivo. The following applies: 10 mg/Kg i.p. after methamphetamine 2 mg/kg; test after 15 minutes; FIG. 1. How it is done: Male ICR mice (25-35 g) were used in this study. They were bred, housed and maintained in the animal facility center with temperature- and humidity-controlled and 12:12 light dark cycle in National Taiwan University Medical College (NTUM) (Taiwan, R.O.C.). All animal experiments were carried out in accordance with the guidelines established by the Institutional Animal Care and Utilization Committee of the respective university.
Methamphetamine (MeAmPh, 2 mg/kg) was injected into mice to induce hyperlocomotion in the mice as a typical model for behavioral experiments.
After 15 minutes, the treated mice were then subjected to locomotor activity test.
Data herein are expressed as the mean±S.E.M and the n number indicates the number of the mice used. Statistical comparisons between the data in control and treatment conditions were analyzed by Student's t test. An effect was considered statistically significant if the p value was less than 0.05.

The mark [3] stands for this setting: 71 or 77 dB prepulse, 115 dB pulse.
Where [4] appears, read: 10 nmol i.cb., KET 30 mg/Kg i.p.

Experimental findings from patent US20120029066A1, “USE OF FLAVONES FOR TREATING PSYCHIATRIC DISORDERS WITH SENSORIMOTOR GATING DEFICITS” (Taipei Medical University, priority 2010, published 2012) are described below.

The structures appear in SMILES notation.

For the compound `CNC1(c2ccccc2Cl)CCCCC1=O` (centres unmarked) [KET, ketamine, reference compound], the “effect of psychotomimetic alone on pre-pulse inhibition of the startle response” value in the test on mice [1] (setting [3]) is on record as “inhibited the pre-pulse inhibition”.

Take `CN[C@@H](C)Cc1ccccc1` [MeAmph, methamphetamine, reference compound]: the “effect of psychotomimetic alone on pre-pulse inhibition of the startle response” value with mice [1] (setting [3]) is “inhibited the pre-pulse inhibition”.

For the compound `CCOC(=O)c1ncn2c1CN(C)C(=O)c1cc(N=[N+]=[N-])ccc1-2` [Ro 154513, reference compound], the “reinstating ketamine induced PPI disruption” value with mice [2] (setting [4]) is reported as “reinstated”.

For the compound `COc1ccc(-c2cc(=O)c3c(O)cc(O)cc3o2)cc1` [acacetin], in the test on mice [1] (10 mg/Kg i.p.), the “rescue of PPI disruption induced by methamphetamine” value is reported as “significantly rescued”. Moreover, the “decreasing MeAmph-induced hyperlocomotor activity” value in the test with Male ICR mice was “active”.

Take `NS(=O)(=O)c1cc(C(=O)O)c(NCc2ccco2)cc1Cl` [furosemide, reference compound]: the “effect on the reinstated ketamine induced PPI disruption” value in the test with mice [2] (furosemide 50 nmol i.cb., reinstatement by Ro-154513 or hispidulin 10 nmol i.cb., KET 30 mg/Kg i.p., FIG. 6) was “antagonized”. Moreover, the “effect on the reinstated methamphetamine induced PPI disruption” value in the test with mice [2] (furosemide 50 nmol i.cb., reinstatement by Ro-154513 or hispidulin 10 nmol i.cb., MeAmPh 2 mg/Kg i.p., FIG. 6) is reported as “antagonized”.

`COc1c(O)cc2oc(-c3ccc(O)cc3)cc(=O)c2c1O` [hispidulin]: in the test on mice [1] (10 mg/Kg i.p., 15-minute before KET 30 mg/Kg i.p., 71 or 77 dB prepulse, 115 dB pulse, FIG. 2), the “rescue of KET impaired PPI inhibition” value is “rescued”. Besides, in the test on mice [1] (50 mg/Kg i.p., 15-minute before MeAmph 2 mg/Kg i.p., 71 or 77 dB prepulse, FIG. 3), the “rescue of MeAmph impaired PPI inhibition” value is given as “rescued”. Besides, in the test with mice [2] (setting [4]), the “reinstating ketamine induced PPI disruption” value was “effective in reinstating”. For the same compound, the “reinstating MK-801 induced PPI disruption” value in the test on mice [2] (10 nmol i.cb., MK-801 0.3 mg/Kg i.p., FIG. 4) is recorded as “effective in reinstating”. The “reinstating methamphetamine induced PPI disruption” value in the test with mice [2] (10 nmol i.cb., methamphetamine 2 mg/Kg i.p., FIG. 4) is listed as “effective in reinstating”. For the same compound, the “decreasing MeAmph-induced hyperlocomotor activity” value in the test with Male ICR mice is “active”.

For the compound `O=c1cc(-c2ccc(O)c(O)c2)oc2cc(O)cc(O)c12` [luteolin], the “rescue of PPI disruption induced by methamphetamine” value in the test with mice [1] (10 mg/Kg i.p.) is “significantly rescued”.
